Assay results reported in publication PMC7827406, “Structure–Activity Relationship (SAR) Study of Spautin-1 to Entail the Discovery of Novel NEK4 Inhibitors” (International Journal of Molecular Sciences, 2021).
Like-named read-outs stand apart in the source and are kept apart here.

Assays:
Experiment in all cases: biochemical
Set-up in all cases: Eurofins KinaseProfiler full panel at Km ATP, residual kinase activity (%) relative to DMSO
[1] = target: T1, GCN2(h) (Homo sapiens, UniProt Q9P2K8)
T1 construct: gene EIF2AK4
T1 sequence (Q9P2K8 whole entry): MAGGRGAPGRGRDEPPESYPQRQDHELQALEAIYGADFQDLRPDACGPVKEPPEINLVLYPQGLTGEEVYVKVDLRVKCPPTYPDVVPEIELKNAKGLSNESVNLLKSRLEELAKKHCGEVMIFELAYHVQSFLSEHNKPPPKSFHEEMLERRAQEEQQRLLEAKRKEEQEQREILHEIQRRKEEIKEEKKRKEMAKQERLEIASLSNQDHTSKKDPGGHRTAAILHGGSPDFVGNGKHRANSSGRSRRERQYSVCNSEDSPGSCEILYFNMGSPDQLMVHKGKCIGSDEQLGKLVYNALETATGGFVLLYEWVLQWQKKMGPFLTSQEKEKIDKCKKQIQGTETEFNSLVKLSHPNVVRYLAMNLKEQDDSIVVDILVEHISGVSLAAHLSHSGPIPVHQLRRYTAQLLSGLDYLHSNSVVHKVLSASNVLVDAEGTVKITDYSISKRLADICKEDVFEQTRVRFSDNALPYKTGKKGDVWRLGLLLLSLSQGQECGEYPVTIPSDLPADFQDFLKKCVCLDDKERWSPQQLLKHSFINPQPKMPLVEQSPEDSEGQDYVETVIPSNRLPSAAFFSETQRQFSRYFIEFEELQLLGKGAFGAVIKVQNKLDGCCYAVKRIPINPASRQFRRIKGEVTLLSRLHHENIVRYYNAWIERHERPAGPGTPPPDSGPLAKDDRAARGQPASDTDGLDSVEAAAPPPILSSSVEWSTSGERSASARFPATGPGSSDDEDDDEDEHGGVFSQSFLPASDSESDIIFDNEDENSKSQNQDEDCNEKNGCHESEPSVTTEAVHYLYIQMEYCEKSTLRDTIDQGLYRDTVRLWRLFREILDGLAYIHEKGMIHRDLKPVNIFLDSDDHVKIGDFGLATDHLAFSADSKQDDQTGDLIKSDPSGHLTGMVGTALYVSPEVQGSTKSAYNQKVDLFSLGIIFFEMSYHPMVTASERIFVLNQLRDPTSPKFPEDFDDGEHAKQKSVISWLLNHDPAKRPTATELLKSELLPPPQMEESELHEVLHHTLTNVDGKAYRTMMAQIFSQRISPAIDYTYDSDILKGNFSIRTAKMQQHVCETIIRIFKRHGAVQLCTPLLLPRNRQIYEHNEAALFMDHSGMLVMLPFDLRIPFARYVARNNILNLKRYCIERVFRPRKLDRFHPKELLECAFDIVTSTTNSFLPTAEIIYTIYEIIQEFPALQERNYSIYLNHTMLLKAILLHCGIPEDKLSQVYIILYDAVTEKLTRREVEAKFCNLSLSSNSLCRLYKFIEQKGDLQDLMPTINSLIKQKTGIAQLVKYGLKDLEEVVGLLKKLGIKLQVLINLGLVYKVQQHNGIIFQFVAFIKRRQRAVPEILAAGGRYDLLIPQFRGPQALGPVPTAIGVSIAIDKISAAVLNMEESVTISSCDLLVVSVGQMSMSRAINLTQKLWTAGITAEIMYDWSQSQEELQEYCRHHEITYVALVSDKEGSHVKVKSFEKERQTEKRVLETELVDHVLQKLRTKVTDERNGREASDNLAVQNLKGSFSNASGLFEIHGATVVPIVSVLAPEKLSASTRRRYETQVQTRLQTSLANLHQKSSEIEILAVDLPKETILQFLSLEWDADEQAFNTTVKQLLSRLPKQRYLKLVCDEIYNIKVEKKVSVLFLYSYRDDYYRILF
Procedure, shortened: (§1)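 Compounds screened at 10 µM in radiometric kinase activity assays at Km ATP, reported as remaining kinase activity (%). A KINOMEscan competition-binding screen at 10 µM measured DNA-tagged kinase retained on immobilized active-site ligand by qPCR.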

[2] = target: T2, DYRK2(h) (Homo sapiens, UniProt Q92630)
T2 sequence (Q92630 1-601): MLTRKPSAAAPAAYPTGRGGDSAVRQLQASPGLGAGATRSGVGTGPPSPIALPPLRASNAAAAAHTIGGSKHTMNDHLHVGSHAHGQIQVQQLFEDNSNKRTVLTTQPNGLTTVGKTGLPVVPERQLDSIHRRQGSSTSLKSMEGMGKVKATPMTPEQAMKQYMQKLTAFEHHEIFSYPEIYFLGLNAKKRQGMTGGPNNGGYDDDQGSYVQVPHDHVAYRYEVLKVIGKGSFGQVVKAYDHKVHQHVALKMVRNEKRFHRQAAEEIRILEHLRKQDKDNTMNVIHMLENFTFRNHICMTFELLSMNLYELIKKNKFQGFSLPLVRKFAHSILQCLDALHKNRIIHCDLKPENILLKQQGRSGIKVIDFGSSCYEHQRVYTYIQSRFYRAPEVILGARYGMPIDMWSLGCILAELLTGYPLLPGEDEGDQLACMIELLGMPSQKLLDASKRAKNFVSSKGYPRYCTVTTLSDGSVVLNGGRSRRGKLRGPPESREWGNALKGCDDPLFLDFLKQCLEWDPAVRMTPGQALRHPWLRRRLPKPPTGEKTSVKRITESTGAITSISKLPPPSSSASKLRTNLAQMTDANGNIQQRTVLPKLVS
Procedure, shortened: as §1

[3] = target: T3, DCAMKL2(h) (Homo sapiens, UniProt Q8N568)
T3 construct: gene DCLK2
T3 sequence (Q8N568 1-766): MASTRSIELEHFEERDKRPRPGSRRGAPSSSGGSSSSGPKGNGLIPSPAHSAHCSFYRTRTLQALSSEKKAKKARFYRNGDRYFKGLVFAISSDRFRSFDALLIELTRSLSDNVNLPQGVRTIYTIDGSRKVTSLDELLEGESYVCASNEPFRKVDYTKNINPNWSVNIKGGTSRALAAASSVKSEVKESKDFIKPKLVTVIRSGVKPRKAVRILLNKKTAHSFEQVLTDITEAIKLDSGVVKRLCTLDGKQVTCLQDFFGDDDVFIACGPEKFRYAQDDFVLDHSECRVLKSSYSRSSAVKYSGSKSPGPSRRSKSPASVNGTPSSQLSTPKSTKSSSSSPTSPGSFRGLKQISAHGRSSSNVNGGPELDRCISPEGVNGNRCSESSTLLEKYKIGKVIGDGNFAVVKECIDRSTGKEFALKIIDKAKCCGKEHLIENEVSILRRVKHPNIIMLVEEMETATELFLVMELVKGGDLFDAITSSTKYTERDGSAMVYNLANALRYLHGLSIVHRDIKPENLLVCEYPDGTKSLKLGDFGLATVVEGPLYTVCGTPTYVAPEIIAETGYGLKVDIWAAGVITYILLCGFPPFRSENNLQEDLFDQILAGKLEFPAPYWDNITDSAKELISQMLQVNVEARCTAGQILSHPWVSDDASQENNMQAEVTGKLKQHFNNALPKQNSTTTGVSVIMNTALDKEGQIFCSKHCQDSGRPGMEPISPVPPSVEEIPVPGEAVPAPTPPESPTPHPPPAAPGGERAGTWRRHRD
Procedure, shortened: as §1

[4] = target: Plk3(h) (Homo sapiens, UniProt Q9H4B4)
Plk3(h), sequence (Q9H4B4 whole entry): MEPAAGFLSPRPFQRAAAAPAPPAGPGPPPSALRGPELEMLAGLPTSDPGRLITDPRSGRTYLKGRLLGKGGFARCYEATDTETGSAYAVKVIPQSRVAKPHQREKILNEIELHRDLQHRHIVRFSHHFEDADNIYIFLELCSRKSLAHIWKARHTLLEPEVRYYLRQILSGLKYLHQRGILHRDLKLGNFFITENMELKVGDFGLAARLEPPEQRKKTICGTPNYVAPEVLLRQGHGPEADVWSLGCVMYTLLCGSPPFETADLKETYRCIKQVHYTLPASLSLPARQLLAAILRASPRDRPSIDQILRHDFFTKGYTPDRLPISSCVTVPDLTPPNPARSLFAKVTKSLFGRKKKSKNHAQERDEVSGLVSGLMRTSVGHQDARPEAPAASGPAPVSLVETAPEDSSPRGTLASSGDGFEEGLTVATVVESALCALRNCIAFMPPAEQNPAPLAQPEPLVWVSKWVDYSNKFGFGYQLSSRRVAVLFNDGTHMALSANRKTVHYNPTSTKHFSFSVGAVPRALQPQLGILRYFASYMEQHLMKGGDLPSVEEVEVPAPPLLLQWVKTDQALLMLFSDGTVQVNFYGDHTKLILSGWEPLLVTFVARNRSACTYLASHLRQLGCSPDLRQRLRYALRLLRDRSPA
Procedure, shortened: as §1

[5] = target: T4, PDGFRβ(h) (Homo sapiens, UniProt P09619)
T4 construct: gene PDGFRB
T4 sequence (P09619 whole entry): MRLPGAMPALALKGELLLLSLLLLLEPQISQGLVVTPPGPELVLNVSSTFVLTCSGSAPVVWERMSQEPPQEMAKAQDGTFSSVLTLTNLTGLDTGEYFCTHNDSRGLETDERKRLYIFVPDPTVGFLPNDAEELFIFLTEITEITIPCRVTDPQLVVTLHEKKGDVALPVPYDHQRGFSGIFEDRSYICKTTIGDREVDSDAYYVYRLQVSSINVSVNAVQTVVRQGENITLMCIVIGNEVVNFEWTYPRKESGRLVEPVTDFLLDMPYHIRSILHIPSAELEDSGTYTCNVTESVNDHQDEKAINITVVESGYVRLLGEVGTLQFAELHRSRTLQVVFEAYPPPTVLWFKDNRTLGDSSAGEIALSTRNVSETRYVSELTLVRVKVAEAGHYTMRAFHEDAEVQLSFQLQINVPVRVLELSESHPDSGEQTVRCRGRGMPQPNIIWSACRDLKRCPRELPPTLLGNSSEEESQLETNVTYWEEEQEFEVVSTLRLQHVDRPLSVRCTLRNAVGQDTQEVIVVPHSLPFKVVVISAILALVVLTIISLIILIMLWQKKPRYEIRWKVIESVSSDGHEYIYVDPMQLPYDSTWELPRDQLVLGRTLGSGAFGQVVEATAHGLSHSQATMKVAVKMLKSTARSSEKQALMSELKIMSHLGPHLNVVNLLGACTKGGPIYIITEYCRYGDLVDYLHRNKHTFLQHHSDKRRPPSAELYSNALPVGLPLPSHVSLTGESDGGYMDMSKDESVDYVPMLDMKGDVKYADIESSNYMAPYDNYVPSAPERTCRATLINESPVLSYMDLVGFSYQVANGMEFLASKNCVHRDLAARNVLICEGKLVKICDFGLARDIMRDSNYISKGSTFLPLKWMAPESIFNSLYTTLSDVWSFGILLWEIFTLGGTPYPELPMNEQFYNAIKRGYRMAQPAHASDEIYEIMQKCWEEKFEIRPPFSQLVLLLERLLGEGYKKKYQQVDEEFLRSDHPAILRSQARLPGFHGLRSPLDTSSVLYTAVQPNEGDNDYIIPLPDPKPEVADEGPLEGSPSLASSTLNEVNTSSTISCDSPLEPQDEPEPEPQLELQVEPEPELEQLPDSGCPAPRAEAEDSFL
Procedure, shortened: as §1

[6] = target: T5, BRK(h) (Homo sapiens, UniProt Q13882)
T5 construct: gene PTK6
T5 sequence (Q13882 whole entry): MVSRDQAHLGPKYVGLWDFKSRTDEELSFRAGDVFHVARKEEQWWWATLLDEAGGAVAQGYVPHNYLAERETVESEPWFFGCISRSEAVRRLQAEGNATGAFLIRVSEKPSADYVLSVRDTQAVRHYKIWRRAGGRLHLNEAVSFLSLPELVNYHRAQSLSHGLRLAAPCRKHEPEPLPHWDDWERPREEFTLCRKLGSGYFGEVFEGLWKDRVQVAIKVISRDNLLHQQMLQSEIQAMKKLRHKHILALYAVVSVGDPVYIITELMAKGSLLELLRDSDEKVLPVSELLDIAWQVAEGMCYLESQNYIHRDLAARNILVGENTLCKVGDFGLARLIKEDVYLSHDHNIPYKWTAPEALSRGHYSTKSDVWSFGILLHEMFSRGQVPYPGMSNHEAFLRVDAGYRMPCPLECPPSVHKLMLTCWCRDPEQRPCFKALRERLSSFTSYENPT
Procedure, shortened: as §1

[7] = read-out: Residual activity (%) 5ay
[8] = read-out: Residual activity (%) Spautin-1 5aa
[9] = read-out: Residual activity (%) 5at
[10] = read-out: Residual activity (%) 5as

COc1ccc2ncnc(Nc3cccc(F)c3)c2c1 [5ay, N-(3-Fluorophenyl)-6-Methoxy-4-Quinazolinamine]
remaining activity at 10 µM [1, 7]: 83%
remaining activity at 10 µM [2, 7]: 64%
remaining activity at 10 µM [3, 7]: 80%
remaining activity at 10 µM [4, 7]: 92%
remaining activity at 10 µM [5, 7]: 113%
remaining activity at 10 µM [6, 7]: 71%

Fc1ccc(CNc2ncnc3ccc(F)cc23)cc1 [5aa, 6-Fluoro-N-(4-fluorobenzyl)-4-Quinazolinamine]
remaining activity at 10 µM [1, 8]: 85%
remaining activity at 10 µM [2, 8]: 99%
remaining activity at 10 µM [3, 8]: 81%
remaining activity at 10 µM [4, 8]: 88%
remaining activity at 10 µM [5, 8]: 97%
remaining activity at 10 µM [6, 8]: 105%

Fc1ccc2ncnc(NCCc3ccc(Cl)cc3)c2c1 [5at, N-[2-(4-Chlorophenyl)Ethyl]-6-Fluoro-4-Quinazolinamine]
remaining activity at 10 µM [1, 9]: 97%
remaining activity at 10 µM [2, 9]: 103%
remaining activity at 10 µM [3, 9]: 57%
remaining activity at 10 µM [4, 9]: 99%
remaining activity at 10 µM [5, 9]: 109%
remaining activity at 10 µM [6, 9]: 96%

Fc1ccc(CCNc2ncnc3ccc(F)cc23)cc1 [5as, 6-Fluoro-N-[2-(4-Fluorophenyl)Ethyl]-4-Quinazolinamine]
remaining activity at 10 µM [1, 10]: 85%
remaining activity at 10 µM [2, 10]: 100%
remaining activity at 10 µM [3, 10]: 64%
remaining activity at 10 µM [4, 10]: 94%
remaining activity at 10 µM [5, 10]: 104%
remaining activity at 10 µM [6, 10]: 87%
